Holding throughout (format): biochemical
For one experiment, the target named is human PDE1B (Homo sapiens (Human), UniProt Q01064). Nature of the experiment: Ca2+-calmodulin dependent PDE enzyme assay (radiometric SPA, [3H]cAMP). Conditions: Mean ± standard deviation; [3H]cAMP 47 nM; read-out: PDE 1B IC50. From the text: (§1) The nucleotide sequences encoding full-length human PDE1A (NP_001003683.1) and PDE1C (NP_005011.1) are inserted into pFastBac1 (Invitrogen) vector with an N-terminal HIS tag. The nucleotide sequences encoding full-length human PDE4D (NP_006194.2) and catalytic domain (residue 641-1141) of PDE3A (NP_000912.3) are inserted into pFastBac1 (Invitrogen) vector with a C-terminal HIS tag. The nucleotide sequences encoding full-length human PDE6A (NP_000431.2) and PDE6B (AAH00249.1) are inserted into pFastBacDual (Invitrogen) vector with an N-terminal HIS tag and N-terminal Flag tag, respectively, for production of PDE6A/6B dimer. Baculovirus generation and protein expression in Sf9 cells are carried out according to the protocol of Bac-to-Bac Baculovirus Expression system (Invitrogen). The nucleotide sequence encoding full-length human PDE1B (NP_000915.1) is inserted into pIEX4 (Novagen) with a C-terminal HIS tag, and both protein productions in Sf9 cells are carried out according to the vendor's protocol (Novagen). The His tagged PDE proteins are purified using Ni-NTA agarose (Qiagen) followed by size exclusion chromatography on a SUPERDEX© 200 column (GE Healthcare) in storage buffer (20 mM Tris-HCl, pH 7.5, 150 mM NaCl, 10% Glycerol). The Flag tagged PDE proteins including PDE6A/6B are purified using anti-Flag M2-agarose (Sigma), after purification through NiNTA column chromatography and eluted in storage buffer (50 mM Tris-HCl, pH 7.5, 150 mM NaCl, 10% Glycerol, 0.1 mg/ml Flag peptide). All purified proteins are stored at −80° C. in small aliquots.
(§2) All 3′, 5′ cyclic nucleotide PDE enzyme activities are measured with a radiometric enzyme assay based on SPA detection system. Compounds to be tested are diluted in pure DMSO using ten point concentration response curves. Maximal compound concentration in the reaction mixture is either 10 or 100 μM. Compounds at the appropriate concentration are pre-incubated with either of the PDE enzymes for 30 minutes before the reaction is started by the addition of substrate. Reactions are allowed to proceed for 60 minutes at room temperature. Next, reactions are stopped by addition of SPA beads. Samples are read 12 hours later in a MICROBETA™ TRILUX© Counter. IC50 values are calculated by plotting the normalized data vs. log [compound] and fitting the data using a four parameter logistic equation.
(§3) PDE1B, PDE1A, and PDE1C are cloned and purified following standard protein generation procedures. […] The final enzyme concentration is 0.25, 0.074 and 0.0012 nM, for PDE1A, PDE1B and PDE1C respectively. The reactions are started by addition of the substrate, [^3H]cAMP, to give a final concentration of 47 nM.

Another experiment deals with human PDE1C (Homo sapiens (Human), UniProt Q14123). Described as above. Conditions: Mean ± standard deviation; [3H]cAMP 47 nM; read-out: PDE 1C IC50.
From the text: as §1, §2, §3

A further experiment deals with human PDE1A (Homo sapiens (Human), UniProt P54750). The experiment is described as above. Conditions: Mean ± standard deviation; [3H]cAMP 47 nM; read-out: PDE 1A IC50.
From the text: as §1, §2, §3

The target of experiment [1] is human PDE3A (catalytic domain) (Homo sapiens (Human), UniProt Q14432). Nature of the experiment: PDE enzyme assay using [3H]cAMP as substrate (SPA). Conditions: [3H]cAMP 47 nM.
Chain of human PDE3A (catalytic domain) (Q14432 641-1141): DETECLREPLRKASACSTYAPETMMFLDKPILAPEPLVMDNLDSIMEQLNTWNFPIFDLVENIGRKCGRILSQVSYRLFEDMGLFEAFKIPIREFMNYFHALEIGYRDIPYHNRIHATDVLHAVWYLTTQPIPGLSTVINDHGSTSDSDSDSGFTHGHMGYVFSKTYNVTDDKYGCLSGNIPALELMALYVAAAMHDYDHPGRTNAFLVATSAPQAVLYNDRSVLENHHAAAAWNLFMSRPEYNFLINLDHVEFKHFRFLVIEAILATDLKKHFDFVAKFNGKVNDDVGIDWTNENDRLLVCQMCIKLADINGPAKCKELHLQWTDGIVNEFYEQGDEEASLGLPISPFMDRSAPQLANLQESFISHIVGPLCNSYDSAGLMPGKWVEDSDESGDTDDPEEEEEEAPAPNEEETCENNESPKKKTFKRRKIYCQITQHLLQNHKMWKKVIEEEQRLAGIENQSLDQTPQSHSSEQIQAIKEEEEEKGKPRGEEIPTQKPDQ
From the text: as §1, §2
(§4) The following PDE activities are measured using [3H]cAMP as reaction substrate: human PDE3A (catalytic domain) and human PDE4D. Both enzymes are cloned and purified following standard procedures. The assay buffer is prepared to give a final concentration in the assay of 50 mM Tris-HCl, 8.3 mM MgCl2, 1.7 mM EDTA and 0.1% BSA at pH 7.5. Final enzyme concentrations are 0.008 and 0.021 nM for PDE3A and PDE4D, respectively. Reactions are started by addition of the substrate, [3H]cAMP, to give a final concentration of 47 nM.

Another experiment has as its target human PDE4D (Homo sapiens (Human), UniProt Q08499). Kind of experiment: PDE enzyme assay using [3H]cAMP as substrate (SPA). Conditions: Mean ± standard deviation; [3H]cAMP 47 nM.
From the text: as §1, §2, §4

For the next experiment, the target named is human PDE6A/6B (Homo sapiens (Human), UniProt P16499+P35913). Nature of the experiment: PDE enzyme assay using [3H]cGMP as substrate (SPA). Conditions: [3H]cGMP 80 nM; read-out: PDE6AB IC50.
Chain of human PDE6A/6B (P16499 whole entry): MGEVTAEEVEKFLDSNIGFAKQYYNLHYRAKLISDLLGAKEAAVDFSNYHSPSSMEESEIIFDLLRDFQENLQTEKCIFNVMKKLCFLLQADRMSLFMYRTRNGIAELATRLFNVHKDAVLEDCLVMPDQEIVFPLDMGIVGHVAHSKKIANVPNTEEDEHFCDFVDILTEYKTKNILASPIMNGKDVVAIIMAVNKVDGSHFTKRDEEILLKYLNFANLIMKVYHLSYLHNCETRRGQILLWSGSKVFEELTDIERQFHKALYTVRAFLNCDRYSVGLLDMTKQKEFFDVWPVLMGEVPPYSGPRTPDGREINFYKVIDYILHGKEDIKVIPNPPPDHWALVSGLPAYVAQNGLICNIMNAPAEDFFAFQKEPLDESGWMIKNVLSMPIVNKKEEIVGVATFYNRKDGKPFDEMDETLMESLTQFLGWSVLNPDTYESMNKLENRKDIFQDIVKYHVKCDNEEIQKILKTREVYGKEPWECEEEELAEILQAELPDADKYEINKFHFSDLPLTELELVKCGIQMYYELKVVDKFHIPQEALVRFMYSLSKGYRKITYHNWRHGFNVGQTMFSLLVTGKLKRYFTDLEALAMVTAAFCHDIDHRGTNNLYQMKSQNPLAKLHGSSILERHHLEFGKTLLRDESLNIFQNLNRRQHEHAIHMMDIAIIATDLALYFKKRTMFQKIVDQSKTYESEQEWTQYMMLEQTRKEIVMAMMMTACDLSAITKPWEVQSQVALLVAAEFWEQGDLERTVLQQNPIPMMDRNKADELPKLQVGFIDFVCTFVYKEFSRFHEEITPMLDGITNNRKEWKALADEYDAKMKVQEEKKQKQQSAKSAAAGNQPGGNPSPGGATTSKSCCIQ
Chain of human PDE6A/6B (P35913 whole entry): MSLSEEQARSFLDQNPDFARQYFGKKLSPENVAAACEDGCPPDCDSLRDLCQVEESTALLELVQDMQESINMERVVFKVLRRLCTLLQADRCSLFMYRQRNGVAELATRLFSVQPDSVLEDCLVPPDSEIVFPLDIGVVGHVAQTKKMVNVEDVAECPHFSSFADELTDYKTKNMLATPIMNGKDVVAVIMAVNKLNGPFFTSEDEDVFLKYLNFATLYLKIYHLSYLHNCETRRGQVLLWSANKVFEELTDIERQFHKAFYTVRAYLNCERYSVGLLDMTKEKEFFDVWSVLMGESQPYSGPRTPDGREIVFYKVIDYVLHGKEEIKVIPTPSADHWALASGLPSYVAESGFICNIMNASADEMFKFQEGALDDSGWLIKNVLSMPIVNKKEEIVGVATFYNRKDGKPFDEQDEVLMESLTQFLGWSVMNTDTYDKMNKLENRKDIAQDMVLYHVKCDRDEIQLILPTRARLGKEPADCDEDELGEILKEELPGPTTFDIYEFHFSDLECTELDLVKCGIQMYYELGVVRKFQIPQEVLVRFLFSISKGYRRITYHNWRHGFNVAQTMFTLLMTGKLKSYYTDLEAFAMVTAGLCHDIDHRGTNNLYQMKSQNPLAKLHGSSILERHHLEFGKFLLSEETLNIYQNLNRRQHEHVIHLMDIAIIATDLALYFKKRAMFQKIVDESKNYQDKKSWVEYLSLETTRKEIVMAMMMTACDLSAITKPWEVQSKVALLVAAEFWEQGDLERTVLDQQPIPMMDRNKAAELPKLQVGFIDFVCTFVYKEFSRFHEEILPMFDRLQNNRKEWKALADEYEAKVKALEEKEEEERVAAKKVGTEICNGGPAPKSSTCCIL
From the text: as §1, §2
The following phosphodiesterase activities are measured using [3H]cGMP as reaction substrate: human PDE6A/6B. The catalytic active form of human PDE6 is a dimer composed of an a (human PDE6A) and […] (human PDE6B). The dimer of human PDE6A/6B is produced by the coexpression and purification strategy, using two purification steps, i.e., NiNTA and anti-FLAG Sepharose chromatography. The assay buffer is prepared to give a final concentration in the assay of 50 mM Tris-HCl, 8.3 mM MgCl2, 1.7 mM EDTA and 0.1% BSA at pH 7.5. The final enzyme concentration is 5 nM. The reactions are started by addition of the substrate, [3H]cGMP, to give a final concentration of 80 nM.

By IC50 is commonly meant the concentration needed to halve the response being measured.

Chain of human PDE4D (Q08499 other isoform, or with tags, fused parts or gaps): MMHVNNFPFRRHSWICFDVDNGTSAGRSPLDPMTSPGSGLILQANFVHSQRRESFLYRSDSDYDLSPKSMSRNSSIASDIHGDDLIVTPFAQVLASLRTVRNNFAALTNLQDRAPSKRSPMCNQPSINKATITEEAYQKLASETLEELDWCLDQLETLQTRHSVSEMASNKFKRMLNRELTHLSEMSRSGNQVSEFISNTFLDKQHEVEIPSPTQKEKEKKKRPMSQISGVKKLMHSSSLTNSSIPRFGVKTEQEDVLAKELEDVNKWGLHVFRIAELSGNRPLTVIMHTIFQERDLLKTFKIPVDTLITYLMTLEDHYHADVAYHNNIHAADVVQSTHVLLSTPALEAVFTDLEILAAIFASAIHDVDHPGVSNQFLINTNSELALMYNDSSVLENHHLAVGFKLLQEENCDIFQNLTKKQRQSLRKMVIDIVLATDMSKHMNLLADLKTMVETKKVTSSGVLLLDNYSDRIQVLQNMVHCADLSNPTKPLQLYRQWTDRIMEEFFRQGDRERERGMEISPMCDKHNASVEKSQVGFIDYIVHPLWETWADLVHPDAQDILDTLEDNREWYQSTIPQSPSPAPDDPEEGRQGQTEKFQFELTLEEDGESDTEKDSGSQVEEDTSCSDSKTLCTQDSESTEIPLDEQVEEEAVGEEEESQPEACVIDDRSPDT

As for `CCCCn1c(C)c(CC)n2c(C3(C4CC4)CC3)nnc2c1=O` [Example 16, 7-Butyl-3-(1-cyclopropylcyclopropyl)-5-ethyl-6-methyl-[1,2,4]triazolo[4,3-a]pyrazin-8-one], the half-inhibitory concentration (IC50) on human PDE1B is 6.54 ± 2.61 nM; at human PDE1C it was 1.2 ± 0.94 nM; at human PDE1A, 8.67 ± 7.91 nM; in experiment [1], more than 100000 nM; on human PDE4D, 22300 nM; on human PDE6A/6B, more than 10000 nM.
